Laboratory results: patent US10738019B2, “Compound including basic dye and amino acid, hair dyeing dye, and hair dyeing composition” (HODOGAYA CHEMICAL CO., LTD., priority 2018, dated 2020)

Experiment: Water solubility, foaming property and hair feel during hair dyeing
Format: physicochemical
Details: for hair dyeing (dyeing gel, pH 6 aqueous solution)
Experimental: Subsequently, Human White hair 100% BM-W manufactured by Beaulax Co., Ltd. was used as hair to be dyed. Two parts by mass of the dyeing gel was taken with respect to 1 part by mass of the hair and applied to the hair uniformly using a comb, and the hair was dyed at 40° C. for 10 minutes and washed with water.

With `C[N+](C)(C)c1ccc2ccc(O)c(N=Nc3ccc(N)cc3)c2c1` [Compound (A-5)] the water solubility was “sufficient water solubility for hair dyeing”.

For `CC1=CC(=C(c2ccc(N)c(C)c2)c2ccc(N)c(C)c2)C=CC1=N` [Compound (A-3)], the water solubility was “sufficient water solubility for hair dyeing”.
